Laboratory results: US20080125432A1 (Devgen NV, priority 2004, published 2008)
Like-named read-outs stand apart in the source and are kept apart here.

Legend:
[1] = system: C. elegans wild-type strain N2; assay: Same C. elegans pumping assay format using wild-type strain N2; type: in vivo; details: read-out: EC50 (μM) Wild type worm N2
Excerpt: The screening of the compounds according to the present invention has been performed in the C. elegans based high-throughput screen for Kv4.3 modulators described above. The method for testing the activity on human Kv4.3 of the compounds according to the invention with C. elegans strains expressing human Kv4.3 for their activity is the same as the method described in WO 03/097682. The method for testing the compounds on wild-type C. elegans strains not expressing human Kv4.3 is the same as the method described in WO 00/63427. Briefly, UG1755 animals have been grown in large numbers and staged young adults (no or only few eggs inside the uterus) have been harvested on the day of screening. Approximately 125 animals in 80 μl buffer have been dispensed per well of a “U shaped 96-well compound plate The compound plate contained already compound material at a final concentration of 30 μM in 0.3% DMSO. After one hour incubation 10 μl of the fluorescent label Calcein AM (CAM) have been added to achieve a final concentration of 5 μM CAM and 0.8% DMSO. After another four hours of incubation at 20° C., the drinking of C. elegans animals (or the “reaction 8 measured by the uptake of CAM) has been stopped by adding 10 μl of a 60 μM ivermectin solution. The fluorescence intensity (counts per second) has been measured 40 minutes after adding ivermectin with the Wallac plate reader at a wavelength of 535 nm (after excitation at 485 nm).
These compounds have been also tested in the same assay format using a C. elegans wild-type strain N2 and the corresponding EC50 has been calculated. The ratio of the EC50s obtained for a compound on the two strains (transgenic expressing human Kv4.3 and wild-type) gives an indication on whether said compound is acting on human Kv4.3. […]

[2] = molecular target: T1, Kv1.5 potassium channel (Homo sapiens, UniProt P22460); assay: Patch clamp, CHO cells stably expressing the Kv1.5 potassium channel; type: cell-based; details: Kv1.5 mediated current
T1 construct: expressed in transfected cells
T1 sequence (P22460 whole entry): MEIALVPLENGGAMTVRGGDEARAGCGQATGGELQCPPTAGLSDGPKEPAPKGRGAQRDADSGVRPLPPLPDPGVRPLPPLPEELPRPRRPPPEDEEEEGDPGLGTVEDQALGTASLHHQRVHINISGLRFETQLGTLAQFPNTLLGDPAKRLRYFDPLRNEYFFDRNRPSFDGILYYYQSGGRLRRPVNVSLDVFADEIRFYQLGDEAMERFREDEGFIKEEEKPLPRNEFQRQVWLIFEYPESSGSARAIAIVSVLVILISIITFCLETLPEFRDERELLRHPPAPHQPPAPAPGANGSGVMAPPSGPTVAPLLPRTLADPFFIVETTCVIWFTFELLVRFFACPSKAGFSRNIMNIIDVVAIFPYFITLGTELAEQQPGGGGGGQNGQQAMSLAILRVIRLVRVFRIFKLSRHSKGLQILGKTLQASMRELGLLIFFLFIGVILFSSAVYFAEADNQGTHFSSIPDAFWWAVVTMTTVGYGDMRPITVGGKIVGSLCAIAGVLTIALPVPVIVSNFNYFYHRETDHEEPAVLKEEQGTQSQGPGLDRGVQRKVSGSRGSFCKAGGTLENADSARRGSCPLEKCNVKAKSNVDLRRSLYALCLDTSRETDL
Protocol: The cDNA coding for Kv1.5 (GenBank Acc. No. M55513) was cloned into the pcDNA6-vector (Invitrogen, Leek, Netherlands). A C-terminal epitope-tag was introduced via PCR. The plasmid was sequenced and subsequently introduced into cells. Clonal cell lines stably expressing the Kv1.5 channel were established. Expression of protein was analyzed by means of immunofluorescence using antibodies directed against the epitope-tag. The functional expression of the ion channels was validated electrophysiologically.
The experiments were performed using CHO cells stably expressing the Kv1.5 potassium channel.
From a HP of −60 mV cells were hyperpolarised for 100 ms to […], followed by a 500 ms depolarisation to +50 mV. The current amplitude at the end of the test pulse to +50 mV was used for the analysis. Pulse cycling rate was 10 s (0.1 Hz).
The application protocol of test compounds is depicted in FIG. 7. The first 14 stimuli were required to achieve steady state of the current amplitude. Unspecific current reduction was calculated and served for correcting procedures during data analysis. After the 14th stimulus the test compound application was started (indicated by an arrow) via teflon and silicone tubings and was assumed to reach the cell after 6 additional stimuli. The perfusion is adjusted by using a defined drop rate of 10 drops per 10-12 s. Up to three concentrations were applied successively to one cell followed by a wash period of 5 minutes. Total number of stimuli was 140. Effect of the test compound was analysed between stimulus nos. 21 and 50 (5 min., long dashed line) for the first concentration, between stimulus nos. 51 and 80 (5 min., short dashed line) for an additional 5 minutes. If the cell was still stable, a wash was added afterwards. Start of test compound application at the given concentration is indicated by arrows. Number of stimuli of each single episode are shown in the protocol of FIG. 7.
The effects of the compounds were investigated at one concentration (2 μM or 1 μM) on the Kv1.5-mediated potassium channel. For comparison, the vehicle control experiments on the Kv1.5 mediated potassium channel. Results are presented in 9Table 9

[3] = 2 μM, fraction, cell also prints %

SMILES | EC50 ([1]; Caenorhabditis elegans) | Relative remaining current (mean after 8-10 min) ([2]; 1 μM) | further results
Cc1nc(Nc2ccc(F)cc2)sc1C(=O)N[C@H](C)c1ccc2ccccc2c1 [Compound 16, 2-(4-fluoro-phenylamino)-4-methyl-thiazole-5-carboxylic acid (R)-1-(naphthalen-2-yl)ethyl amide] | > 60 µM |  | 
Cc1nc(Nc2ccc(Br)cc2)sc1C(=O)N[C@@H](C)c1ccc2ccccc2c1 [Compound 18, 2-(4-bromo-phenylamino)-4-methyl-thiazole-5-carboxylic acid (S)-1-(naphthalen-2-yl)ethyl amide] | 33 µM |  | 
Cc1nc(Nc2ccc(Br)cc2)sc1C(=O)N[C@H](C)c1ccc2ccccc2c1 [Compound 19, 2-(4-bromo-phenylamino)-4-methyl-thiazole-5-carboxylic acid (R)-1-(naphthalen-2-yl)ethyl amide] | 33 µM |  | 
Cc1nc(Nc2ccc(Cl)cc2)sc1C(=O)N[C@@H]1CCC[C@H]1OCc1ccccc1 [Compound 30, 2-(4-chloro-phenylamino)-4-methyl-thiazole-5-carboxylic acid (1R,2R)-2-(benzyloxycyclopent-1-yl) amide] |  |  | EC50 [1]: > 60 µM
COc1ccccc1Nc1nc(C)c(C(=O)N[C@H]2CCC[C@@H]2OCc2ccccc2)s1 [Compound 68, 2-(2-methoxy-phenylamino)-4-methyl-thiazole-5-carboxylic acid (1S,2S)-2-(benzyloxycyclopent-1-yl) amide] |  |  | Relative remaining current (mean after 8-10 min) [2, 3]: 0.51 (51%); Relative remaining current (mean after 5 min) [2, 3]: 0.66 (66%)
COc1ccccc1Nc1ccc(C(=O)N[C@H]2CCC[C@@H]2OCc2ccccc2)s1 [Compound 75, 2-(2-methoxy-phenylamino)-thiophene-5-carboxylic acid ((1S,2S)-2-benzyloxycyclopent-1-yl) amide] |  | 77% | 
Cc1nc(Sc2ccccc2)sc1C(=O)N[C@H]1CCC[C@@H]1OCc1ccccc1 [Compound 81, 4-methyl-2-phenylsulfanyl-thiazole-5-carboxylic acid ((1S,2S)-2-benzyloxycyclopent-1-yl) amide] |  | 44% | 

Now from value to compound, other results behind:

EC50 ([1]; Caenorhabditis elegans) | Relative remaining current (mean after 8-10 min) ([2]; 1 μM) | SMILES | further results
 | 79% | Cc1nc(Nc2cccc3cccnc23)sc1C(=O)N[C@H]1CCC[C@@H]1OCc1ccccc1 [Compound 94, 4-methyl-2-(quinolin-8-ylamino)-thiazole-5-carboxylic acid ((1S,2S)-2-benzyloxycyclopent-1-yl) amide] | 
 | 86% | Cc1nc(Nc2ccc3occc3c2)sc1C(=O)N[C@H]1CCC[C@@H]1OCc1ccccc1 [Compound 126, 2-(benzofuran-5-ylamino)-4-methyl-thiazole-5-carboxylic acid ((1S,2S)-2-benzyloxycyclopent-1-yl) amide] | 
